Test results as given in article PMC9351465, “Mechanism-based heparanase inhibitors reduce cancer metastasis in vivo” (Proceedings of the National Academy of Sciences of the …, 2022).
Where “and” joins values, the source holds several entries; their conditions need not be identical. Equal entries are not always repeated. Entries after “also recorded” stand apart in the source; their conditions may differ.

Tests used:
HPSE [1] = biological target: T1, HPSE (Homo sapiens, UniProt Q9Y251); test: colorimetric fondaparinux cleavage assay; format: biochemical
T1 sequence (Q9Y251 158-543 limits assumed): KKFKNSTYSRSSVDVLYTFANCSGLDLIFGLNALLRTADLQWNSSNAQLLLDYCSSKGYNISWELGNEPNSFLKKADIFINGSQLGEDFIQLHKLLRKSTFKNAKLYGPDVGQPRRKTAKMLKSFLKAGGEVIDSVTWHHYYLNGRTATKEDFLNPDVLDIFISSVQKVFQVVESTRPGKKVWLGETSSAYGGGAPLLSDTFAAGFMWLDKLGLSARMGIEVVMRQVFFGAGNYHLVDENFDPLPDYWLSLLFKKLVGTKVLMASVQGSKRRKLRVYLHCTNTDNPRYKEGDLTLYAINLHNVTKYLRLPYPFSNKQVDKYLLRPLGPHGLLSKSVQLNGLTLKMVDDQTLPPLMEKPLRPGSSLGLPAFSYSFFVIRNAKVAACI
T1 sequence (Q9Y251 36-109 limits assumed): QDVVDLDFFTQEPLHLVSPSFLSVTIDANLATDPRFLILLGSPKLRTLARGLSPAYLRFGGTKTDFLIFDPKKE
Experimental: We next investigated the ability of our inhibitors to abrogate HPSE processing of its native oligosaccharide substrates, using a colorimetric assay that detects cleavage of the synthetic HS pentasaccharide fondaparinux ([49]). […]
Fondaparinux cleavage was performed essentially as previously described (9). Briefly, assays were carried out in 96 well plates (Nunc) pretreated with 4% BSA in TBS-T (20 mM Tris pH 7.4, […]
100 µL reactions were set up in 40 mM NaOAc pH 5.0 buffer, containing final concentrations of 200 ng/mL HPSE, 100 µM Fondaparinux (Arixtra) and specified concentrations of inhibitors.
Reactions were incubated at 37°C for 18 h, then quenched with 100 µL 0.1 M NaOH supplemented with 1.7 mM WST-1 tetrazolium salt, and incubated at 60°C for 1 h. Absorbance at 584 nm was read using an ELISA plate reader (BIO-TEK Instruments). All reactions were carried out in technical duplicate. Data were plotted and analyzed using Sigmaplot (Systat). […]

GUSB = biological target: T2, GUSB (Homo sapiens, UniProt P08236); test: cABPP of human platelet lysates, GUSB band; details: human platelet lysates containing both HPSE and GUSB
T2 sequence (P08236 23-651): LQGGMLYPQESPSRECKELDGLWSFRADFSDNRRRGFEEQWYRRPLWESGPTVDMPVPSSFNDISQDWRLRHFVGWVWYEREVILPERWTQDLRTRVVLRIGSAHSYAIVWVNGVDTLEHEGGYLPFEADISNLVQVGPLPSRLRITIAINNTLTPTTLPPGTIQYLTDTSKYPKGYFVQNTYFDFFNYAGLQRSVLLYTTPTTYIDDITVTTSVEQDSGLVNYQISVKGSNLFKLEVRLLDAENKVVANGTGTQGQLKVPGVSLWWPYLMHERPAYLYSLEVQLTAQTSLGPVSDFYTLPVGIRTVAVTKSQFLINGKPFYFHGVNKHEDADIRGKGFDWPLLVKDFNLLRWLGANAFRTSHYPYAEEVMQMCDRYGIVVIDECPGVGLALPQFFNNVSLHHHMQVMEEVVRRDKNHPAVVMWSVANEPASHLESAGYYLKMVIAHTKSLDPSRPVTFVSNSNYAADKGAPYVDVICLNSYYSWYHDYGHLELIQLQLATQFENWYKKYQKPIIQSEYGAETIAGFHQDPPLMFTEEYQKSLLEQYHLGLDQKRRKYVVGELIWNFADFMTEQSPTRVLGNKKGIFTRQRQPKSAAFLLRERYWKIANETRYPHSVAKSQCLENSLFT

HPSE [2] = biological target: T1, HPSE; test: H35SPG basement membrane (ECM) digest by recombinant HPSE; format: biochemical; details: for inhibition of recombinant HPSE-mediated H35SPG cleavage: 200 ng HPSE, pH 6.0, 37°C, 5 h
Excerpt: Finally, we assessed our inhibitors against HPSE-mediated degradation of bona fide HSPGs in an ECM environment. Cultured bovine corneal endothelial cells secrete a subendothelial basement membrane material rich in proteoglycans, which can be radiolabeled by growth in the presence of ^35SO4^2− ([50]). Solubilized H^35S chains released from H^35SPGs by HPSE digestion can be resolved chromatographically, with HPSE inhibition leading to a corresponding loss of signal. […] We also tested inhibition of endogenous cellular HPSE using this assay format. […]
ECM coated 35 mm culture dishes containing 35S labelled HS were prepared as previously described (10). Briefly, bovine corneal endothelial cells were plated at an initial density of 2x10^5 cells/ml, with 4% dextran T-40 (Sigma) included in the growth medium. Na235SO4 (25 µCi/ml) was added to the incubation medium on days 2 and 5 after seeding. On day 12, subendothelial ECM is exposed by dissolving the cells with PBS containing 0.5% Triton X-100 and 20 mM NH4OH, followed by four washes with PBS.
(§1) For HS-degradation assays, ECM coated dishes were incubated with 200 ng recombinant HPSE in 1 mL reaction mixture (10 mM buffer Phosphate-Citrate pH 6.0, 50 mM NaCl, 1 mM DTT, 1 mM CaCl2) containing HPSE inhibitors or DMSO control. Plates were incubated at 37°C for 5 h, then assay medium collected and applied to a 0.9×30 cm Sepharose 6B size exclusion column. The Sepharose 6B column was eluted with PBS, and 35S radioactivity of 0.2 mL fractions quantitated using a liquid scintillation analyzer (Packard BioScience) (11). […]
Matrigel and […]
non-migrating cells in the upper side of the Boyden filter were removed by swabbing, then invading cells on the bottom side of the transwell filter imaged for analysis. […]
B16 melanoma - Twenty minutes before tumor cell inoculation, C57BL/J6 mice (n=5) were injected intraperitoneally with vehicle alone (PBS), compound 2 (300 nmol/mouse), or SST0001 (150 µg/mouse). Mice were subsequently intravenously inoculated with 1.5x105

HPSE [3] = biological target: T1, HPSE; test: competitive activity-based protein profiling (cABPP) with ABP 7, recombinant HPSE; details: recombinant HPSE 20 nM, 1 h preincubation at 37°C, then 100 nM ABP 7, pH 5.5
[4] = biological target: exo-β-glucuronidase EcGUSB (Escherichia coli, UniProt P05804); test: cABPP with ABP 7, recombinant EcGUSB; details: competition with ABP 7
human platelet HPSE = biological target: T3, human platelet HPSE (Homo sapiens, UniProt Q9Y251); test: cABPP of human platelet lysates, HPSE band
T3 sequence (Q9Y251 158-543 limits assumed): T1 sequence (Q9Y251 158-543 limits assumed)
T3 sequence (Q9Y251 36-109 limits assumed): T1 sequence (Q9Y251 36-109 limits assumed)

U87 glioblastoma cells = test: Matrigel invasion assay; format: cell-based, human; details: 20 µM inhibitor, 4 h
Experimental: Preliminary in cellulo evaluations of our inhibitors’ effects on cancer aggression were conducted using a Matrigel invasion assay, which measures the ability of cells to migrate through transwell inserts coated with the ECM material Matrigel. Matrigel invasion by cells requires a broad complement of proteases and glycosidases, thereby mimicking some aspects of metastasis in vivo ([51]).
as §1
Cells in the upper chamber were separated by Matrigel from a lower chamber containing 600 µL DMEM, supplemented with 10% FBS. […] 10 randomly selected microscopic fields were recorded, and cell invasion calculated using ImageJ, by quantitating the percentage of the field stained by crystal violet. […]

BpHep and AcGH79 = format: biochemical, Burkholderia pseudomallei; Acidobacterium capsulatum; details: recombinant enzymes, competition with ABP 7

## O=C(O)[C@@H]1[C@@H](O)[C@H](O)[C@@H](O)[C@@H]2O[C@@H]21 [compound 1, glucuronyl-cyclophellitol]
HPSE [1]; at 50 μM
  HPSE inhibition, fondaparinux cleavage: Little HPSE inhibition
GUSB
  selectivity of GUSB inhibition in platelet lysates: exclusively inhibited GUSB
HPSE [2]
  inhibition of recombinant HPSE-mediated H35SPG cleavage: no HPSE inhibition was observed
HPSE [3]
  HPSE inhibition (cABPP): ineffective HPSE inhibitor up to 10 μM
[4]
  EcGUSB inhibition (cABPP): inhibited

## CC(=O)N[C@H]1[C@@H](O[C@H]2[C@H](O)[C@@H](O)[C@@H]3O[C@@H]3[C@@H]2C(=O)O)O[C@H](COS(=O)(=O)O)[C@@H](O)[C@@H]1O [compound 3]
HPSE [1]; 200 ng/mL HPSE, 100 µM fondaparinux, pH 5.0, 37°C, 18 h, n = 2, read-out: IC50, HPSE-mediated fondaparinux cleavage
  IC50: 520 nM and ~510 nM
HPSE [2]
  inhibition of recombinant HPSE-mediated H35SPG cleavage: robust, dose-dependent inhibition
HPSE [2]; 1 μM 2 or 3 compared to 4.6 μM 10
  level of inhibition of H35SPG cleavage relative to 4.6 μM 10: comparable levels of inhibition
Human platelet HPSE; HPSE IC50, human platelet lysates, cABPP, n = 3
  IC50: ~60 nM and 56 nM
Human platelet HPSE; human platelet lysates containing both HPSE and GUSB
  selectivity of HPSE inhibition in platelet lysates: highly selective inhibition of human platelet HPSE
U87 glioblastoma cells
  Matrigel invasion (% field stained): significantly reduced Matrigel invasion
HPSE [3]
  HPSE inhibition (cABPP): nanomolar HPSE inhibition potencies; also recorded: greater potency than 2 and 4

## O=C(O)[C@@H]1[C@@H](O[C@H]2O[C@H](CO)[C@@H](O)[C@H](O)[C@H]2O)[C@H](O)[C@@H](O)[C@@H]2O[C@@H]21 [compound 4]
HPSE [3]
  HPSE inhibition (cABPP): nanomolar HPSE inhibition potencies

## N[C@H]1[C@@H](O[C@H]2[C@H](O)[C@@H](O)[C@@H]3O[C@@H]3[C@@H]2C(=O)O)O[C@H](CO)[C@@H](O)[C@@H]1O [compound 5]
HPSE [3]
  HPSE inhibition (cABPP): weaker inhibition
BpHep and AcGH79
  inhibition of BpHep and AcGH79 (cABPP): all compounds apart from 5 showing activity
